Laboratory results taken from paper PMC12566703, “Design, Synthesis, In Vitro and In Silico Biological Evaluation of New Pyridine-2,5-Dicarboxylates Esters Bearing Natural Source Fragments as Anti-Trypanosomatid Agents” (Pharmaceutics, 2025).
Where two headings read alike, the source gives them in different places.

Experiments:
[1] = tested on: T. cruzi (A1) epimastigotes; assay: In vitro trypanocidal activity, Alamar Blue assay, 48 h; type: cell-based, Trypanosoma cruzi; conditions: for Selectivity Index T. cruzi A1: CC50 (J774.2)/IC50; for IC50: 48 h, read-out: T. cruzi IC50 (µM ± SD) A1
Method: (§1) Both strains were maintained in liver infusion tryptose (LIT) medium supplemented with 10% FBS and 0.1% penicillin-streptomycin. They were preserved by transferring 1 × 10^6 parasites/mL into a new culture medium every week. […] The metabolic activity was determined by the Alamar Blue assay. Briefly, after the incubation period, 20 µL of 2.5 mM resazurin solution was added to each well and incubated for 3 h. Three independent experiments were performed in triplicate. The half-maximum inhibitory concentration (IC50) was determined using probit analysis.

[2] = tested on: T. cruzi (NINOA) epimastigotes; assay: as above; type: cell-based, Trypanosoma cruzi; conditions: for Selectivity Index T. cruzi NINOA: CC50 (J774.2)/IC50; for IC50: 48 h, read-out: T. cruzi IC50 (µM ± SD) NINOA; for IC50 / Trypanocidal activity class in words, NINOA strain: epimastigotes, NINOA strain; for Trypanocidal activity class in words, NINOA strain: classes by IC50
Method: as §1

[3] = tested on: L. mexicana (MHOM/MX/2017/UABJO17FCQEPS) (FCQEPS) promastigotes; assay: In vitro leishmanicidal activity, MTT method, 48 h; type: cell-based, Leishmania mexicana; conditions: for Selectivity Index L. mexicana FCQEPS: CC50 (J774.2)/IC50; for IC50: 48 h, read-out: L. mexicana IC50 (µM ± SD) FCQEPS; for IC50 / Leishmanicidal activity class in words, FCQEPS strain: promastigotes, FCQEPS strain; for Leishmanicidal activity class in words, FCQEPS strain: classes by IC50
Method: (§2) To determine the leishmanicidal activity of pyridine-2,5-dicarboxylates, the parasites, in their logarithmic growth phase (5 × 10^5 parasites/mL), were cultured in 96-well microliter plates with the corresponding pyridine-2,5-dicarboxylate compound at different concentrations (0.78–100 µM). Compounds were dissolved in DMSO in a final volume of 200 µL for 48 h at 26 °C. Parasites treated with DMSO (0.2%) were used as a negative control, while treatments with Glucantime and Amphotericin B, at the same concentrations, were used as positive controls. The metabolic activity of the cells was determined using the 3-(4,5-Dimethylthiazol-2-yl)-2,5-diphenyltetrazolium bromide (MTT) method. IC50 was determined using probit analysis. Three independent experiments were performed in triplicate, and the data were analyzed for statistical significance (p < 0.05) using Biostat 5.3.0 software.

[4] = tested on: L. mexicana (MNYC/BZ/62/M379) (M379) promastigotes; assay: In vitro leishmanicidal activity, MTT method, 48 h; type: cell-based, Leishmania mexicana; conditions: for Selectivity Index L. mexicana M379: CC50 (J774.2)/IC50; for IC50: 48 h, read-out: L. mexicana IC50 (µM ± SD) M379; for IC50 / Leishmanicidal activity class in words, M379 strain: promastigotes, M379 strain; for Leishmanicidal activity class in words, M379 strain: classes by IC50
Method: as §2

[5] = Cytotoxicity assay, MTT method, 48 h; type: cell-based, murine; conditions: mouse, J774.2 macrophage cells, J774.2 cell line, read-out: Macrophage J774.2 CC50 (µM ± SD)
Method: A cytotoxicity assay was performed using the murine macrophage J774.2 cell line, which was recloned from the original ascites and solid tumor J774.1 (according to the manufacturer). The cells were cultured in RPMI medium supplemented with 10% SBF, 100 U […] penicillin, 100 µg/mL streptomycin, and glutamine (2 mM), and 5% CO2 atmosphere. The medium was changed every 2–3 days. Macrophages were used at 1 × 10^6 cells and were incubated with compounds at different concentrations (0.75–100 µM, respectively) at 37 °C for 48 h in a 5% CO2 atmosphere. DMSO was used as a negative control (0.2%). The metabolic activity of macrophages was determined by the MTT method. The percentage of cell viability was calculated, and the half-maximal cytotoxic concentration (CC50) was determined using probit analysis. Three independent assays were conducted in triplicate.

[6] = Trypanosoma cruzi, epimastigotes, A1 strain

Row | Compound | Selectivity Index T. cruzi A1 [1] | IC50 [1, 6] | Selectivity Index T. cruzi NINOA [2] | IC50 ([2]; Trypanosoma cruzi) | Selectivity Index L. mexicana FCQEPS [3] | IC50 ([3]; Leishmania mexicana) | Selectivity Index L. mexicana M379 [4] | IC50 ([4]; Leishmania mexicana) | Leishmanicidal activity class in words, M379 strain [4] | CC50 at 48 h [5] | Leishmanicidal activity class in words, FCQEPS strain [3] | Trypanocidal activity class in words, A1 strain ([1]; epimastigotes, A1 strain, classes by IC50) | Trypanocidal activity class in words, NINOA strain [2] | IC50 [2] | IC50 ([1]; epimastigotes, A1 strain) | IC50 [3] | IC50 [4]
1 | CCOC(=O)c1nc(C)c(C(=O)OCc2ccc3c(c2)OCO3)cc1-c1ccc(C)cc1 [Compound 6b] | >4.0 | 50.2 ± 2.31 µM | >3.7 | 54 ± 2.29 µM | >1 | > 200 µM | >1 | > 200 µM | did not have antiparasitic activity | > 200 µM | – | – | – | – | – | – | –
2 | CCOC(=O)c1nc(C)c(C(=O)OCc2ccc3c(c2)OCO3)cc1-c1ccc(F)cc1 [Compound 6c] | >7.9 | 25.4 ± 0.6 µM | >1 | > 200 µM | >1 | > 200 µM | >1 | > 200 µM | inactive | > 200 µM | – | – | – | – | – | – | –
3 | CCOC(=O)c1nc(C)c(C(=O)OC/C=C/c2ccccc2)cc1-c1ccccc1 [Compound 7a] | >1 | > 200 µM | >7.20 | 27.8 ± 1.66 µM | >1 | > 200 µM | >1 | > 200 µM | did not have antiparasitic activity | > 200 µM | did not have leishmanicidal activity | – | – | – | – | – | –
4 | CCOC(=O)c1nc(C)c(C(=O)OCC=Cc2ccccc2)cc1-c1ccc(C)cc1 [Compound 7b] | >1 | > 200 µM | >2.0 | – | >1.7 | 116.71 ± 0.03 µM | >1 | > 200 µM | did not have antiparasitic activity | > 200 µM | – | completely lose their trypanocidal activity | – | – | – | – | –
5 | CCOC(=O)c1nc(C)c(C(=O)OCC=Cc2ccccc2)cc1-c1ccc(F)cc1 [Compound 7c] | >8.8 | 22.8 ± 0.69 µM | >3.1 | 63.1 ± 1.64 µM | >1 | > 200 µM | >1 | > 200 µM | inactive | > 200 µM | – | – | – | – | – | – | –
6 | CCOC(=O)c1nc(C)c(C(=O)O[C@@H]2C[C@@H](C)CC[C@@H]2C(C)C)cc1-c1ccccc1 [Compound 8a] | >1 | > 200 µM | >1 | – | >2.4 | 82.7 µM | >2.5 | 79.1 µM | – | > 200 µM | – | – | inactive | – | – | – | –
7 | CCOC(=O)c1nc(C)c(C(=O)O[C@@H]2C[C@@H](C)CC[C@@H]2C(C)C)cc1-c1ccc(C)cc1 [Compound 8b] | >3.9 | – | >1.8 | 106.9 ± 0.5 µM | >1 | – | >1 | – | – | > 200 µM | – | – | slight activity | > 200 µM | – | – | –
8 | CCOC(=O)c1nc(C)c(C(=O)O[C@@H]2C[C@@H](C)CC[C@H]2C(C)C)cc1-c1ccc(F)cc1 [Compound 8c, 2-Ethyl 5-((1R,2S,5S)-2-isopropyl-5-methylcyclohexyl) 3-(4-fluorophenyl)-6-methylpyridine-2,5-dicarboxylate] | >9.2 | – | >4.3 | ≤ 56.7 µM | >2.2 | 90.9 ± 5 µM | >1 | > 200 µM | – | > 200 µM | – | – | – | 46 ± 3.33 µM | – | – | –
9 | CCOC(=O)c1nc(C)c(C(=O)OC2C[C@@H]3CC[C@@]2(C)C3(C)C)cc1-c1ccccc1 (stereo partly shown) [Compound 9a] | >8.0 | < 29 µM | >3.6 | 55.8 ± 2.5 µM | >1 | > 200 µM | >1 | > 200 µM | did not have antiparasitic activity | > 200 µM | did not have leishmanicidal activity | – | moderately active (moderately active (IC50 41 to 100 µM)) | – | 25 ± 2.98 µM | – | –
10 | CCOC(=O)c1nc(C)c(C(=O)O[C@@H]2C[C@H]3CC[C@@]2(C)C3(C)C)cc1-c1ccc(C)cc1 [Compound 9b, 2-Ethyl 5-((1S,2R,4R)-1,7,7-trimethylbicyclo[2.2.1]heptan-2-yl) 6-methyl-3-(p-tolyl)pyridine-2,5-dicarboxylate] | >5.2 | < 40 µM | – | < 40 µM | >2.5 | – | >5.0 | – | – | > 200 µM | – | – | – | 22.3 ± 1.6 µM | 38.5 µM | – | –
11 | CCOC(=O)c1nc(C)c(C(=O)OC2C[C@@H]3CC[C@@]2(C)C3(C)C)cc1-c1ccc(F)cc1 (stereo partly shown) [Compound 9c] | >1 | > 200 µM | >7.6 | 26.2 µM | >1 | > 200 µM | >1 | > 200 µM | inactive | > 200 µM | – | – | – | 26.2 ± 1.55 µM | – | – | –
12 | CCOC(=O)c1nc(C)c(C(=O)OCC23CC4CC(CC(C4)C2)C3)cc1-c1ccccc1 [Compound 10a] | >4.3 | 46.9 µM | >1.9 | 105 µM | >1.2 | ≤ 162 µM | >2.4 | ≤ 162 µM | – | > 200 µM | – | – | – | 105 ± 1.34 µM | – | 161.53 ± 0.03 µM | 82.19 ± 0.01 µM
